Measured values as given in the SangsterLogP compilation.

Assay: method code SF-HPLC, from DOI: 10.1016/s0928-0987(01)00163-4, PMID: 11500258
Conditions: pH 7.4

| logD | SMILES |
| --- | --- |
| 3.4 | CC(C(=O)OCCOCCOCCO)c1cccc(C(=O)c2ccccc2)c1 (stereo not drawn) |
| 3.5 | O=C(Cc1ccccc1Nc1c(Cl)cccc1Cl)OCCOCCOCCOCCO |
| 3.2 | COc1ccc2cc(C(C)C(=O)OCCOCCOCCOCCOCCO)ccc2c1 (stereo not drawn) |
| 3.9 | CC(C(=O)OCCOCCOCCOCCOCCO)c1cccc(C(=O)c2ccccc2)c1 (stereo not drawn) |
| 3.9 | O=C(Cc1ccccc1Nc1c(Cl)cccc1Cl)OCCOCCOCCO |
| 2.9 | COc1ccc2cc(C(C)C(=O)OCCOCCOCCOCCOCCOCCO)ccc2c1 (stereo not drawn) |
| 3.6 | CC(C(=O)OCCOCCO)c1cccc(C(=O)c2ccccc2)c1 (stereo not drawn) |
| 3.5 | CC(C(=O)OCCOCCOCCOCCOCCOCCO)c1cccc(C(=O)c2ccccc2)c1 (stereo not drawn) |
| 2.6 | O=C(Cc1ccccc1Nc1c(Cl)cccc1Cl)OCCOCCOCCOCCOCCOCCO |
| 3.7 | COc1ccc2cc(C(C)C(=O)OCCOCCOCCO)ccc2c1 (stereo not drawn) |
| 3.6 | CC(C(=O)OCCOCCOCCOCCO)c1cccc(C(=O)c2ccccc2)c1 (stereo not drawn) |
| 4.1 | O=C(Cc1ccccc1Nc1c(Cl)cccc1Cl)OCCOCCO |
| 3.5 | COc1ccc2cc(C(C)C(=O)OCCOCCOCCOCCO)ccc2c1 (stereo not drawn) |
